From patent US6703049B2, “Angiogenesis inhibitor” (priority 2000, dated 2004)
Read-outs that look alike come from different tables or passages of the source.

Columns and labels:
[1] = oral administration; cited from earlier work
[2] = tested on: bFGF-induced rat corneal neovascularization; assay: Corneal micropocket angiogenesis assay; type: in vivo, Sprague Dawley rat; details: oral; for bFGF-induced corneal neovascularization: 50 mg/kg/day for 7 days
Protocol: To further investigate the antiangiogenic activity of arsenolite in vivo, the inhibitory effect of systematically administered arsenolite on bFGF-induced neovascularization was studied. The corneal micropocket assay was performed by slight modification of a reported procedure (Polverim P J, Bouck N P, Rastinejad F. Assay and purification of naturally occurring inhibitor of angiogenesis, Methods Enzymol. 1991; 198: 440-450). That is, rats were anesthetized with ketamine. A corneal pocket was made by inserting a cataract knife, with the pocket's base 1-1.5 mm from the limbus. Pellets were made by mixing 30 μl of saline containing 2 μg of recombinant bFGF (R&D Systems, Minneapolis, Minn. U.S.A.) with 300 μg of sucralfate (Sigma, St. Louis, Mo., U.S.A.); this suspension was added to 30 μl of 12% (wt/vol) poly (2-hydroxyethyl methacylate) (Sigma, St. Louis, Mo., U.S.A.) in ethanol. Aliquots of this mixture were then pined onto Teflon pegs and allowed to dry producing approximately 17 pellets so that each pellet contains approximately 100 ng of bFGF. A pellet was implanted into corneal micropockets of each eye of an anesthetized male Sprague Dawley rat, followed by a single topical application of erythromycin ointment on the surface of the cornea. The animals were fed daily from the day of implantation by gastric lavage with 50 mg/kg of arsenolite powder for the treatment group, and the same foods and water without arsenolite for the control group. The corneal neovascularization in both eyes of all animals were examined daily with a slit lamp and the angiogenic responses were evaluated on day 7. The area of conical neovascularization was determined by measuring with a reticule the vessel length (L) from the limbus and the number of clock hours (C) of limbus involved as previously reported (D'Amato R I, Loughnan M S, Flynn E, Foulkman J, Thalidomide is an inhibitor of angiogenesis. Proc Natl Acad Sci USA Apr. 26, 1994; 91(9):4082-5). A formula was used to determine the area of a circular band segment: C/12×3.1416[r^2−(rL)^2], where r=5 mm, the measured radius of rat cornea.

[3] = tested on: bovine capillary endothelial (BCE) cells; assay: Chemotaxis assay in modified Boyden chambers (bFGF as chemoattractant); type: cell-based
Protocol: Chemotaxis assays were performed using modified Boyden chambers, which is equipped with polycarbonate nucleopore membrane (Boyden Chamber, Corning, Coring, N.Y.) described in Journal (Veronique Rigot, Maxime Lehmann, Frederic andre, Noucha Daemi, Jacques Marvaldi and Jose Luis: Integrin ligation and PKC activation are required for migration of colon carcinoma cells. Journal of cell science 111, 3119-3129 (1998)). Pre-coated filters (6.5 mm in diameter, 8 μm pore-size, Matrigel 100 μg/cm^2) were re-hydrated with 250 μl of medium, and 1×10^5 cells in 200 μl medium with or without arsenolite (at concentrations of 10 nM, 20 nM, 50 nM, 100 nM and 200 nM) in triple respectively were seeded into the upper part of each chamber, whereas the lower compartment was filled with 200 μl of serum free DMEM supplemented with 0.1% BSA and with (positive control) or without (negative control) 10 ng/ml bFGF as a chemoattractant. After the cells were incubated at 37° C. for 72 hours, non-migrated cells on the upper surface of the filter were wiped with a cotton swab, and migrated cells on the lower surface of the filter were fixed and stained with 0.125% Cumassie Blue in a mixture of methanol: acetic acid: water at the ratio of 45:10:45 by volume. Chemotaxis was determined by counting cells in five microscopic fields per well, and the extent of migration is expressed as an average number of cells per each microscopic field.

[4] = Tolerability of treated rats in the corneal micropocket study; type: in vivo, Sprague Dawley rat; details: oral, 50 mg/kg/day for 7 days
Protocol: To further investigate the antiangiogenic activity of arsenolite in vivo, the inhibitory effect of systematically administered arsenolite on bFGF-induced neovascularization was studied. The corneal micropocket assay was performed by slight modification of a reported procedure (Polverim P J, Bouck N P, Rastinejad F. Assay and purification of naturally occurring inhibitor of angiogenesis, Methods Enzymol. 1991; 198: 440-450). That is, rats were anesthetized with ketamine. A corneal pocket was made by inserting a cataract knife, with the pocket's base 1-1.5 mm from the limbus. […] The corneal neovascularization in both eyes of all animals were examined daily with a slit lamp and the angiogenic responses were evaluated on day 7. The area of conical neovascularization was determined by measuring with a reticule the vessel length (L) from the limbus and the number of clock hours (C) of limbus involved as previously reported (D'Amato R I, Loughnan M S, Flynn E, Foulkman J, Thalidomide is an inhibitor of angiogenesis. Proc Natl Acad Sci USA Apr. 26, 1994; 91(9):4082-5). A formula was used to determine the area of a circular band segment: C/12×3.1416[r^2−(rL)^2], where r=5 mm, the measured radius of rat cornea. […]

[5] = tested on: BCE cells; assay: Tube formation assay in 3-D fibrin gel culture; type: cell-based, bovine; details: 100 nM, bFGF 10 ng/ml, 48 or 96 hours
Protocol: To investigate the effect of arsenolite on the maturation of angiogenesis, particularly, tubular structure formation of capillary endothelial cells, BCE cells were cultured using three dimensional cultures on the fibrin gel.
Fibrin gels were prepared by following a reported procedure (Bastaki M, Nelli E E, Dell'Era P, Rusnati M, Molinari-Tosatti M P, Parolini S, Auerbach R, Ruco L P, Possati L, Presta M, Basic fibrolast growth factor-induced angiogenic phenotype in mouse endothelium. A study of aortic and microvascular endothelial cell lines. Arterioscler Thromb Vasc Bio March 1997; 17(3): 454-64). Briefly, 2.5 mg/ml of fibrinogen (Calbiochem, San Diego, Calif.) was dissolved in DMEM and cultured BCE cells were added to a final concentration of 10^5 cells/ml, and clotting was then initiated by addition of thrombin (0.5 unit/ml). The mixture was immediately transferred into 24-well plates and allowed to form gel for 5 minutes at 37° C. Following get formation, 0.5 ml of medium with or without bFGF (10 ng/ml) and arsenolite (100 nM) per well were added. After 48 or 96 hours, tube formation was examined under inverted microscopy.

[6] = 28-day oral administration toxicity in rat; type: in vivo, Sprague Dawley rat
[7] = tested on: bovine capillary endothelial (BCE) cells; assay: Endothelial cell proliferation assay (bFGF-stimulated); type: cell-based
Protocol: Male Sprague-Dawley rats weighing 200 g were used as an experimental animal. Arsenolite (solid As4O6) was dissolved in water until it becomes a 1 mM of stock solution, and kept at the room temperature. Bovine capillary endothelial (BCE) cells were provided by Dr. Tae-Hee Lee (Lee, T. H., Rhim, T., and Kim, S. S. (1998). Prothromb inkringle-2 domain has a growth inhibitory activity against basic fibroblast growth factor-stimulated capillary endothelial cells. J. Biol. Chem 273, 28805-28812). BCE cells were preserved in Dulbecco's modified Eagle's medium (DMEM) supplemented with 10% heat-inactivated bovine calf serum (BCS; Hyclone Laboratories, Logan, Utah) L-glutamine (2 mM), penicillin (110 units/ml), streptomycin (100 μg/ml) and 1.5 ng/ml recombinant human basic fibroblast growth factor (bFGF; R&D Systems, Minneapolis, Minn.). Then, the cells were incubated at 37° C. under 10% CO2 condition. The cells between 10-15 passages were employed in this experiment.
Endothelial proliferation assay was performed as described by Cao et al. (Cao, Y., A., An, S. S. A., Ji, R. W., Davodson, D., Cao, Y., and Llinas, M. (1997) Kringle 5 of plasminogen is a novel inhibitor for endothelial cell growth. J. Biol. Chem. 271, 22924-22928). […] After 72 hours of incubation, the cells were trypsinized and counted using a hemocytometer. […]

In the case of arsenic trioxide, the “side effect on gastrointestinal and liver” value [1] is given as “caused serious side effect on gastrointestinal and liver”.
For O1[As]2O[As]3O[As]1O[As](O2)O3 [arsenolite, Tetraarsenic oxide], the bFGF-induced corneal neovascularization [2] was “significantly inhibited”, the bFGF-induced corneal neovascularization ([2]; listed as angiogenesis inhibitor of the present invention) was “noticeably suppressed” and the “density of corneal vessels compared with control animals” value ([2]; 50 mg/kg/day, day 7) was “markedly reduced”. The “inhibition of clock hours of corneal circumferential neovascularization” value ([2]; 50 mg/kg/day, day 7) was “more than 60%”, the “inhibition of vessel length of corneal neovascularization” value ([2]; 50 mg/kg/day, day 7) was “more than 60%” and the “suppression of area of neovascularization” value ([2]; 50 mg/kg/day, day 7, area calculated from length and clock hours) was “approximately 90%”. For the same compound, the IC50 ([3]; 10 ng/ml bFGF, 72 hours, read-out: inhibition of bFGF-induced invasiveness (chemotaxis), IC50) was 48 nM, the “inhibition of bFGF-induced invasiveness (chemotaxis)” value ([3]; at 100 nM, 10 ng/ml bFGF, 72 hours) was 83.4% and the “cell morphological changes associated with apoptotic endothelial cells (detachment, rounding, fragmentation)” value ([3]; chemotaxis assay, 10 to 200 nM) was “none of distinct cell morphological changes”. For the same compound, the “weight loss or unusual behavior over the course of the treatment” value [4] was “did not experience weight loss or unusual behavior”, the “generation of tubes by BCE cells” value [5] was “reduced” and the side effect ([6]; oral 1 mg/kg for 28 days) was “none of side effect was observed”. The side effect ([6]; oral 10 mg/kg for 28 days) was “none of side effect was observed”, the “histological alterations in kidney” value ([6]; oral 100 mg/kg for 28 days) was “only minor histological alterations was observed in kidney” and the “side effect on gastrointestinal and liver” value ([6]; oral 100 mg/kg for 28 days) was “no side affect on gastrointestinal and liver”. For the same compound, the IC50 ([7]; 3 ng/ml bFGF, 72 hours incubation, cell count, read-out: inhibition of BCE cell proliferation, IC50) was 99 nM and the “cell morphological changes associated with apoptotic endothelial cells (detachment, rounding, fragmentation)” value ([7]; after a 3-day incubation, 10 to 200 nM) was “No distinct cell morphological changes”.
